The values below come from patent US20260137698A1, “CYCLIN-DEPENDENT KINASE 7 INHIBITORS” (JOINT STOCK COMPANY «BIOCAD», priority 2022, published 2026).

Data set [1] has as its system MDA-MB-468 (triple negative breast cancer). In words: BrdU incorporation into DNA in MDA-MB-468 cells. The conditions noted are these: Homo sapiens, mean of multiple measurements. The format is cell-based. The source says:
Upon adding bromodeoxyuridine (BrdU) to dividing cells, Thymidine is replaced by its analogue, BrdU, and BrdU is incorporated into DNA. Thus, BrdU incorporated into DNA characterizes the intensity of DNA replication and ongoing S phase of the cell cycle. Reduced incorporation of bromodeoxyuridine into DNA under the action of the compounds characterizes a slowdown in the cell cycle and DNA replication.
The ability of the CDK7 inhibitors according to the present invention to inhibit the incorporation of BrdU into DNA was evaluated in a cell test on continuous cell cultures: MDA-MB-468 (triple negative breast cancer, ATCC® HTB-132™) using a BrdU detection kit (Roche, order no. 11 669 915 001)). The cells were grown in DMEM medium (PanEco, order no. C330π). The basal growth medium was enriched with L-glutamine at a concentration of 2 mM (PanEco, order no. Φ032) and 10% fetal bovine serum (Gibco, order no. 16140-071). MDA-MB-468 adherent cells were detached from plastic with a solution of trypsin-EDTA (PanEco, order no. Π039π), the solution was then inactivated by a DMEM complete medium, centrifuged at 1000 RPM (Eppendorf, 5804 R), a suspension of cells was prepared in a DMEM complete medium, introduced into 96-well culture plates (Corning Inc, order no. 3599) at 4×10^3 cells in 75 μl of medium per well. Test compounds were dissolved in DMSO and diluted with a DMEM complete medium to a final concentration ranging from 0.5 μM to 2 μM. Serum-free growth medium was removed from plate wells, and solutions comprising diluted compounds in the volume of 100 μl in basal growth medium were added. Candidates were introduced into the plate wells with cells in triplicates (the final concentration of DMSO was no more than 1%) and incubated at 37° C. in an incubator with 5% CO2 for 24 hours. Following incubation, 10 μl of solution of BrdU at a concentration of 10 μM was added to wells, the contents of the plates were agitated on an orbital shaker (Biosan, Latvia), and incubated for additional 72 hours at 37° C. in an incubator with 5% CO2. Incorporated BrdU was then detected according to the guidelines of the kit manufacturer. […] 100 μl of substrate solution was introduced into each analyzed well and incubated for 3 minutes at room temperature (+15-25° C.) on an orbital shaker (Biosan, Latvia) and for another 5-7 minutes without stirring.
The amount of incorporated BrdU was detected on the Infinite M200Pro microplate spectrophotometer (Tecan Group Ltd, Switzerland) by measuring the luminescent signal. IC50 value was calculated using the Magellan software (Tecan Group Ltd, Switzerland) by approximating experimental points by four-parameter model with the optimization by Levenberg-Marquardt.
In general terms: Incorporation of labelled thymidine or its analogues reports DNA synthesis.

The nature of data set [2]: Blood-brain barrier permeability: PK in mice brain homogenate following oral administration. As to conditions: male, CD-1, mouse, dose 10 mg/kg; for Kp: brain homogenate / plasma, mice, read-out: AUCbrain/AUCplasma; for AUC(0-t) / Cmax / Tmax / half-life: mice brain homogenate; for half-life: read-out: t½ (converted). The format is in vivo, CD-1 mice. On the procedure:
The ability of substances to penetrate the blood-brain barrier and enter the central nervous system (mouse brain) was evaluated by the ratio of their areas under pharmacokinetic curves in […] and blood plasma following oral administration, characterizing tissue bioavailability to the […], and expressed as the AUCbrain/AUCplasma coefficient.
Pharmacokinetic studies of the compounds were carried out on CD-1 mice, males, aged about 8 weeks, weighing 16-29 g. Animals were subjected a single oral (PO) administration (intragastrically) at a dose of 10 mg/kg in a formulation in the form of a 0.2% solution of hydroxypropyl methylcellulose (HPMC) in a 5% aqueous solution of glucose.
21 animals were used for each substance. All mice were weighed and randomized before dosing.
3 animals were used for each time point. Biomaterials were collected from each animal at one time point. At least 12 h before the start of the experiment, the animals were deprived of food while maintaining free access to water. Blood and brain samples were collected 0.5, 2, 4, 6, 8, 12 and 16 h after administration of the substance.
All manipulations were carried out analogously to Example 54.
Perfusion of mice brains was carried out with saline solution via the vascular system. To this end, the chest was opened, the right atrium was incised with microsurgical scissors, and saline cooled to 4° C. was administered using a 10-ml syringe into the left ventricle until the liver turned white. After washing, the skull was opened and the brain removed, it was weighed and transferred to labeled 5 ml tubes.
A 4-fold volume of water was added to the brain suspension and homogenized using a homogenizer (Omni Bead Ruptor 24) 2 times for 45 seconds. Analogously, the intact mice brain homogenate was prepared, which was then used to prepare calibration samples and QC samples. The calibration curve was generated by analyzing brain homogenate samples with supplementations of known amounts of the standard of the compound being determined.
Samples were precipitated with cooled acetonitrile at 1:4 ratio, containing the internal standard tolbutamide (Sigma, T0891) at a concentration of 50 ng/ml. Samples were stirred on a vortex mixer (G560E, Scientific Industries) for 10 seconds and kept at 4° C. for 15 minutes to precipitate proteins, then centrifuged (5417R centrifuge, Eppendorf) for 10 minutes at 1500 g. […] of supernatants were collected and transferred to corresponding wells of a 96-well plate for HPLC-MS/MS analysis. Quantitative determination of test compounds in brain homogenates was carried out analogously to the procedure described in Example 54. Lower limit of quantitative determination of test compounds in brain homogenate was 0.3 ng/ml.
Pharmacokinetic analysis of data was performed analogously to the procedure described in Example 54.
In addition to main PK parameters, the ratio of concentration in the brain and plasma at the studied time points (AUCbrain/AUCplasma) was calculated to assess bioavailability in the brain (permeability through the blood-brain barrier).

The IC50 is the midpoint of a concentration-inhibition curve. As a reminder, the AUC(0-t) is the area under the concentration-time curve up to a stated or last time point. In general, Cmax refers to the highest concentration seen after dosing. Usually Tmax stands for the time at which the peak concentration occurs. The compound `CC(C)N1CCCc2c(-c3nc(N[C@H]4CCC(C)(C)NC4)ncc3C(F)(F)F)c[nH]c2C1=O` [CDK7_1229, 3-(2-{[(3S)-6,6-dimethylpiperidin-3-yl]amino}-5-(trifluoromethyl)py-rimidin-4-yl)-7-(propan-2-yl)-1H,4H,5H,6H,7H, 8H-pyrrolo[2,3-c]azepin-8-one] yielded a half-inhibitory concentration (IC50) in data set [1] of 28 nM. Also, in data set [2], the Kp is 0.182, the exposure AUC(0-t) worked out at 909 ng·h/mL, the Cmax was 136 ng/mL and the time to peak (Tmax) was found to be 0.5 h. Besides, the half-life in data set [2] was 2.25 h.
On to `CC(C)N1CCCc2c(-c3nc(N[C@H]4CCC5(CC5)NC4)ncc3C(F)(F)F)c[nH]c2C1=O` [CDK7_1277, 3-(2-{[(6S)-4-azaspiro[2.5]octan-6-yl]amino}-5-(trifluoromethyl)py-rimidin-4-yl)-7-(propan-2-yl)-1H,4H,5H,6H,7H, 8H-pyrrolo[2,3-c]azepin-8-one], for which, in data set [2], the Kp stood at 0.302, the exposure AUC(0-t) was 1750 ng·h/mL, the highest concentration (Cmax) turned out to be 226 ng/mL and the Tmax was 2 h. For the same compound, the half-life in data set [2] is 2.76 h.
For the compound `O=C1c2[nH]cc(-c3nc(N[C@H]4CCC5(CC5)NC4)ncc3C(F)(F)F)c2CCCN1C1CC1` [CDK7_1276, 3-(2-{[(6S)-4-azaspiro[2.5]octan-6-yl]amino}-5-(trifluoromethyl)py-rimidin-4-yl)-7-cyclopropyl-1H,4H,5H,6H,7H, 8H-pyrrolo[2,3-c]azepin-8-one], in data set [1], the 50% inhibitory concentration (IC50) amounted to 2 nM. In data set [2], the Kp is 0.243, the area under the curve AUC(0-t) came out at 1940 ng·h/mL, the Cmax is 335 ng/mL and the Tmax was 0.5 h. For the same compound, the half-life in data set [2] was 1.99 h.
For the compound `CN1CCCc2c(-c3nc(N[C@H]4CCC(C)(C)NC4)ncc3C(F)(F)F)c[nH]c2C1=O` [CDK7_1187, 3-(2-{[(3S)-6,6-dimethylpiperidin-3-yl]amino}-5-(trifluoromethyl)py-rimidin-4-yl)-7-methyl-1H,4H,5H,6H,7H, 8H-pyrrolo[2,3-c]azepin-8-one], in data set [1], inhibition was half-maximal at 14 nM (IC50).
Take `CC1(C)CC[C@H](Nc2ncc(C(F)(F)F)c(-c3c[nH]c4c3CCCN(C3CC3)C4=O)n2)CN1` [CDK7_1225, 7-cyclopropyl-3-(2-{[(3S)-6,6-dimethylpiperidin-3-yl]amino}-5-(trifluoromethyl)py-rimidin-4-yl)-1H,4H,5H,6H,7H, 8H-pyrrolo[2,3-c]azepin-8-one]: in data set [1], it took 24 nM to reach half-maximal inhibition (IC50). Besides, in data set [2], the Kp was determined as 0.165, the AUC(0-t) stood at 855 ng·h/mL, the peak level (Cmax) was 93.8 ng/mL and the time to peak (Tmax) stood at 6 h. Further, in data set [2], the half-life is 2.33 h.
